Reference: article PMC12697822, “The CtrCBL1/CtrCIPK6 Complex of Citrus Phosphorylates CtrBBX32 to Regulate CtrSTP1‐Mediated Sugar Accumulation and Cold Tolerance” (Advanced Science, 2025)

System: T1, CtrSTP1
T1 construct: full CDS in pDR196, expressed in hexose/sucrose transport-deficient yeast strain CSY4000; plasma membrane hexose transporter
Experiment: […]-glucose uptake in CSY4000 yeast, Eadie-Hofstee
Assay type: cell-based, Citrus trifoliata
Conditions: pH 5.0; 30 °C; 25 mM sodium phosphate; whole yeast cells; labelled compound; proton-coupled

Km: 101 ± 23.9 µM
Compound: OC[C@H]1OC(O)[C@H](O)[C@@H](O)[C@@H]1O (stereo partly shown) [glucose]
